Like-named read-outs stand apart in the source and are kept apart here.
Key:
[1] = for ϕ (quantum yield): pH 7.4
[2] = literature values; cited from earlier work
[3] = spirolactone dyes, table title says PBS, text (b560-b564) says maximal ε when ring-opened in EtOH/0.1% TFA
[4] = spirolactone dyes, ϕ in PBS × ε in EtOH/0.1% TFA

Row | Structure (SMILES) | Em (nm) ([1]; PBS) | Ex (nm) ([1]; PBS) | ϕ (quantum yield) ([1]; PBS) | ε (M^−1 cm^−1) [1, 3] | also measured
1 | Cc1ccccc1C1=C2C=CC(=[N+](C)C)C=C2[Si](C)(C)c2cc(N(C)C)ccc21 [Compound 001, N-(7-(Dimethylamino)-5,5-dimethyl-10-(o-tolyl)dibenzo[b,e]silin-3(5H)-ylidene)-N-methylmethanaminium, reference compound] | 663 nm | 648 nm | 0.34 |  | Brightness (ϕ × ε) ([1]; PBS): 43,102; ε (M^−1 cm^−1) ([1]; PBS): 126,400 M^−1 cm^−1; emission wavelength, literature value [2]: 658 nm; excitation wavelength, literature value [2]: 644 nm; ε, literature value [2]: 1.1×10^5; ϕ, literature value [2]: 0.31
2 | Cc1ccccc1C1=c2cc3c(cc2[Si](C)(C)c2cc4c(cc21)CCCN4C)=[N+](C)CCC3 [Compound 016, 1,11,13,13-Tetramethyl-6-(o-tolyl)-2,3,4,8,9,10,11,13-octahydrosilino[3,2-g:5,6-g′]diquinolin-1-ium, reference compound] |  |  | 0.31 |  | Brightness (ϕ × ε) [1]: 41,850; Em (nm) [1]: 692 nm; Ex (nm) [1]: 674 nm; ε (M^−1 cm^−1) [1]: 135,000 M^−1 cm^−1; emission wavelength, literature value [2]: 689 nm; excitation wavelength, literature value [2]: 674 nm; ε, literature value [2]: 1.3×10^5; ϕ, literature value [2]: 0.35
3 | Cc1ccccc1C1=c2cc3c(cc2[Si](C)(C)c2cc4c(cc21)CCN4C)=[N+](C)CC3 [Compound 020, 1,9,11,11-Tetramethyl-5-(o-tolyl)-2,3,7,8,9,11-hexahydrosilino[3,2-f:5,6-f]diindol-1-ium, reference compound] |  |  | 0.17 |  | Brightness (ϕ × ε) [1]: 17,000; Em (nm) [1]: 715 nm; Ex (nm) [1]: 690 nm; ε (M^−1 cm^−1) [1]: 100,000 M^−1 cm^−1; emission wavelength, literature value [2]: 712 nm; excitation wavelength, literature value [2]: 691 nm; ε, literature value [2]: 1.0×10^5; ϕ, literature value [2]: 0.12
4 | Cc1ccccc1C1=C2C=CC(=[N+]3CCC3)C=C2[Si](C)(CCCCl)c2cc(N3CCC3)ccc21 (centres unmarked) [Compound 027, 1-(7-(Azetidin-1-yl)-5-(3-chloropropyl)-5-methyl-10-(o-tolyl)dibenzo[b,e]silin-3(5H)-ylidene)azetidin-1-ium] | 668 nm | 651 nm | 0.49 |  | quantum yield ([1]; EtOH/0.1% TFA, mix of two isomers): 0.61; Brightness (ϕ × ε) ([1]; PBS): 81,683; ε (M^−1 cm^−1) ([1]; PBS): 166,700 M^−1 cm^−1; extinction coefficient ([1]; measured in PBS, mix of two isomers): ~4,000; emission ([1]; mix of two isomers): 670 nm; excitation wavelength ([1]; mix of two isomers): 653 nm
5 | COc1cccc(OC)c1C1=C2C=CC(=[N+]3CCC3)C=C2[Si](C)(CCCCl)c2cc(N3CCC3)ccc21 (centres unmarked) [Compound 029, 1-(7-(Azetidin-1-yl)-5-(3-chloropropyl)-10-(2,6-dimethoxyphenyl)-5-methyldibenzo[b,e]silin-3(5H)-ylidene)azetidin-1-ium] | 670 nm | 653 nm | 0.48 |  | Brightness (ϕ × ε) ([1]; PBS): 86,400; ε (M^−1 cm^−1) ([1]; PBS): 180,000 M^−1 cm^−1
6 | COc1cccc(OC)c1C1=C2C=CC(=[N+](C)C)C=C2[Si](C)(CCCCl)c2cc(N(C)C)ccc21 (centres unmarked) [Compound 030, N-(5-(3-Chloropropyl)-10-(2,6-dimethoxyphenyl)-7-(dimethylamino)-5-methyldibenzo[b,e]silin-3(5H)-ylidene)-N-methylmethanaminium] | 673 nm | 655 nm | 0.38 |  | Brightness (ϕ × ε) ([1]; PBS): 76,000; ε (M^−1 cm^−1) ([1]; PBS): 200,000 M^−1 cm^−1
7 | O=C1OC2(c3ccccc31)c1ccc(N3CCC3)cc1[Si](c1ccccc1)(c1ccccc1)c1cc(N3CCC3)ccc12 [Compound 033, 3,7-Di(azetidin-1-yl)-5,5-diphenyl-3′H,5H-spiro[dibenzo[b,e]siline-10,1′-isobenzofuran]-3′-one] |  |  |  | 80,000 M^−1 cm^−1 | extinction coefficient (maximum) in EtOH/0.1% TFA ([1]; EtOH/0.1% TFA): 80,000 M−1 cm−1; Em (nm) ([1]; SDS): 681 nm; Ex (nm) ([1]; SDS): 664 nm; extinction coefficient in anhydrous EtOH/0.1% TFA ([1]; anhydrous EtOH/0.1% TFA): ~124 000 M−1 cm-1
8 | C[Si@]1(CCCCl)c2cc(N3CCC3)ccc2[C@@]2(OC(=O)c3ccccc32)c2ccc(N3CCC3)cc21 [Compound 035, (5s,10s)-3,7-Di(azetidin-1-yl)-5-(3-chloropropyl)-5-methyl-3′H,5H-spiro[dibenzo[b,e]siline-10,1′-isobenzofuran]-3′-one] | 666 nm | 648 nm |  | 183,000 M^−1 cm^−1 | 
9 | C[Si@]1(CCCCl)c2cc(N3CCC3)ccc2[C@]2(OC(=O)c3ccccc32)c2ccc(N3CCC3)cc21 [Compound 036, (5r,10r)-3,7-Di(azetidin-1-yl)-5-(3-chloropropyl)-5-methyl-3′H,5H-spiro[dibenzo[b,e]siline-10,1′-isobenzofuran]-3′-one] | 666 nm | 648 nm | 0.53 | 213,200 M^−1 cm^−1 | 
10 | CN(C)c1ccc2c(c1)[Si@](C)(CCCCl)c1cc(N(C)C)ccc1[C@]21OC(=O)c2ccccc21 [Compound 037, (5s,10s)-5-(3-Chloropropyl)-3,7-bis(dimethylamino)-5-methyl-3′H,5H-spiro[dibenzo[b,e]siline-10,1′-isobenzofuran]-3′-one] | 665 nm | 650 nm | 0.40 | 200,000 M^−1 cm^−1 | extinction coefficient (maximum) in EtOH/0.1% TFA ([1]; EtOH/0.1% TFA): ~200,000 M−1 cm−1; Brightness (ϕ × ε) [1, 4]: 80,000; overall brightness ([1]; ϕ in PBS × ε in EtOH/0.1% TFA): ~80,000 M−1 cm−1
11 | CN(C)c1ccc2c(c1)[Si@](C)(CCCCl)c1cc(N(C)C)ccc1[C@@]21OC(=O)c2ccccc21 [Compound 038, (5r,10r)-5-(3-Chloropropyl)-3,7-bis(dimethylamino)-5-methyl-3′H,5H-spiro[dibenzo[b,e]siline-10,1′-isobenzofuran]-3′-one] | 665 nm | 650 nm | 0.40 | 200,000 M^−1 cm^−1 | extinction coefficient (maximum) in EtOH/0.1% TFA ([1]; EtOH/0.1% TFA): ~200,000 M−1 cm−1; Brightness (ϕ × ε) [1, 4]: 80,000; overall brightness ([1]; ϕ in PBS × ε in EtOH/0.1% TFA): ~80,000 M−1 cm−1
12 | CCOC(=O)CSCCC[Si@]1(C)c2cc(N(C)C)ccc2[C@]2(OC(=O)c3ccccc32)c2ccc(N(C)C)cc21 [Compound 042, Ethyl 2-((3-((5s,10s)-3,7-bis(dimethylamino)-5-methyl-3′-oxo-3′H,5H-spiro[dibenzo[b,e]siline-10,1′-isobenzofuran]-5-yl)propyl)thio)acetate] | 665 nm | 645 nm | 0.45 | 145,800 M^−1 cm^−1 | 
13 | CCOC(=O)CSCCC[Si@]1(C)c2cc(N(C)C)ccc2[C@@]2(OC(=O)c3ccccc32)c2ccc(N(C)C)cc21 [Compound 043, Ethyl 2-((3-((5r,10r)-3,7-bis(dimethylamino)-5-methyl-3′-oxo-3′H,5H-spiro[dibenzo[b,e]siline-10,1′-isobenzofuran]-5-yl)propyl)thio)acetate] | 665 nm | 646 nm | 0.45 | 150,700 M^−1 cm^−1 | 
14 | CN(C)c1ccc2c(c1)[Si@](C)(CCCI)c1cc(N(C)C)ccc1[C@]21OC(=O)c2ccccc21 [Compound 047, (5s,10s)-3,7-Bis(dimethylamino)-5-(3-iodopropyl)-5-methyl-3′H,5H-spiro[dibenzo[b,e]siline-10,1′-isobenzofuran]-3′-one] | 665 nm | 645 nm | 0.43 | 115,000 M^−1 cm^−1 | 
15 | CN(C)c1ccc2c(c1)[Si@](C)(CCCI)c1cc(N(C)C)ccc1[C@@]21OC(=O)c2ccccc21 [Compound 048, (5r,10r)-3,7-Bis(dimethylamino)-5-(3-iodopropyl)-5-methyl-3′H,5H-spiro[dibenzo[b,e]siline-10,1′-isobenzofuran]-3′-one] | 665 nm | 645 nm | 0.45 | 144,000 M^−1 cm^−1 | 
16 | CN(C)c1ccc2c(c1)[Si@](C)(CCCN=[N+]=[N-])c1cc(N(C)C)ccc1[C@]21OC(=O)c2ccccc21 [Compound 053, (5s,10s)-5-(3-Azidopropyl)-3,7-bis(dimethylamino)-5-methyl-3′H,5H-spiro[dibenzo[b,e]siline-10,1′-isobenzofuran]-3′-one] | 666 nm | 645 nm | 0.43 | 206,700 M^−1 cm^−1 | 
17 | CN(C)c1ccc2c(c1)[Si@](C)(CCCN=[N+]=[N-])c1cc(N(C)C)ccc1[C@@]21OC(=O)c2ccccc21 [Compound 054, (5r,10r)-5-(3-Azidopropyl)-3,7-bis(dimethylamino)-5-methyl-3′H,5H-spiro[dibenzo[b,e]siline-10,1′-isobenzofuran]-3′-one] | 665 nm | 645 nm | 0.44 | 218,400 M^−1 cm^−1 | 
18 | CN(C)c1ccc2c(c1)[Si@](C)(CCCSCC(=O)O)c1cc(N(C)C)ccc1[C@]21OC(=O)c2ccccc21 [Compound 063, 2-((3-((5s,10s)-3,7-Bis(dimethylamino)-5-methyl-3′-oxo-3′H,5H-spiro[dibenzo[b,e]siline-10,1′-isobenzofuran]-5-yl)propyl)thio)acetic acid] | 665 nm | 645 nm | 0.45 | 180,600 M^−1 cm^−1 | 
19 | CN(C)c1ccc2c(c1)[Si@](C)(CCCSCC(=O)O)c1cc(N(C)C)ccc1[C@@]21OC(=O)c2ccccc21 [Compound 064, 2-((3-((5r,10r)-3,7-Bis(dimethylamino)-5-methyl-3′-oxo-3′H,5H-spiro[dibenzo[b,e]siline-10,1′-isobenzofuran]-5-yl)propyl)thio)acetic acid] | 665 nm | 645 nm | 0.45 | 160,400 M^−1 cm^−1 | 

— patent US20250003877A1, “Silyl Bridged Dyes” (priority 2021, published 2025)
